Measured values reported in the NIST ThermoML archive (doi:10.1021/je900550v).

Settings: 101.33 kPa, Liquid; for speed of sound: Sing-around technique in a fixed-path interferometer; for mass density: Vibrating tube method

CC(=O)[O-].C[NH2+]CCO [N-methyl-2-hydroxyethylammonium acetate]
Settings | mass density [kg/m3] | speed of sound [m/s] | viscosity [mPa·s]
323.15 K | – | – | 29.06
323.16 K | 1085.62 | 1730.3 | –
323.41 K | 1085.46 | 1729.7 | –
323.65 K | 1085.31 | 1729 | –
323.91 K | 1085.15 | 1728.3 | –
324.16 K | 1085 | 1727.7 | –
324.41 K | 1084.84 | 1727 | –
324.65 K | 1084.68 | 1726.4 | –
324.9 K | 1084.53 | 1725.7 | –
325.16 K | 1084.37 | 1725 | –
325.4 K | 1084.22 | 1724.4 | –
325.66 K | 1084.06 | 1723.7 | –
325.9 K | 1083.9 | 1723.1 | –
326.16 K | 1083.75 | 1722.4 | –
326.41 K | 1083.59 | 1721.7 | –
326.66 K | 1083.43 | 1721.1 | –
326.9 K | 1083.28 | 1720.4 | –
327.16 K | 1083.12 | 1719.7 | –
327.4 K | 1082.97 | 1719.1 | –
327.66 K | 1082.81 | 1718.4 | –
327.9 K | 1082.65 | 1717.7 | –
328.15 K | 1082.49 | 1717.1 | –
328.41 K | 1082.34 | 1716.4 | –
328.66 K | 1082.18 | 1715.8 | –
328.9 K | 1082.03 | 1715.1 | –
329.16 K | 1081.87 | 1714.4 | –
329.4 K | 1081.71 | 1713.8 | –
329.65 K | 1081.55 | 1713.1 | –
329.9 K | 1081.4 | 1712.5 | –
330.16 K | 1081.24 | 1711.8 | –
330.41 K | 1081.08 | 1711.1 | –
330.66 K | 1080.92 | 1710.5 | –
330.91 K | 1080.77 | 1709.8 | –
331.16 K | 1080.61 | 1709.1 | –
331.41 K | 1080.45 | 1708.5 | –
331.66 K | 1080.29 | 1707.8 | –
331.91 K | 1080.13 | 1707.1 | –
332.16 K | 1079.97 | 1706.5 | –
332.41 K | 1079.82 | 1705.8 | –
332.66 K | 1079.66 | 1705.1 | –
332.91 K | 1079.5 | 1704.5 | –
333.16 K | 1079.34 | 1703.8 | –
333.41 K | 1079.19 | 1703.1 | –
333.66 K | 1079.03 | 1702.5 | –
333.91 K | 1078.87 | 1701.8 | –
334.16 K | 1078.71 | 1701.2 | –
334.41 K | 1078.55 | 1700.5 | –
334.66 K | 1078.39 | 1699.8 | –
334.91 K | 1078.23 | 1699.2 | –
335.16 K | 1078.08 | 1698.5 | –
335.41 K | 1077.92 | 1697.9 | –
335.66 K | 1077.76 | 1697.2 | –
335.91 K | 1077.6 | 1696.6 | –
336.16 K | 1077.44 | 1696 | –
336.41 K | 1077.28 | 1695.3 | –
336.66 K | 1077.12 | 1694.7 | –
336.9 K | 1076.96 | 1694 | –
337.16 K | 1076.8 | 1693.4 | –
337.4 K | 1076.63 | 1692.8 | –
337.66 K | 1076.47 | 1692.2 | –
337.9 K | 1076.32 | 1691.7 | –
338.15 K | 1076.16 | 1691.3 | –
